Reference: patent US20120238488A1, “COMPOUNDS AND METHODS FOR TREATING NEOPLASIA” (priority 2009, published 2012)
Like-named read-outs stand apart in the source and are kept apart here.

Assays:
MB435 (Melanoma) = assay: SRB assay, MB435; format: cell-based, human; conditions: 48 h; for CC50 / GI50: Homo sapiens; for CC50: read-out: LC50; for GI50 / TGI: MB435, SRB
Procedure: (§1) SRB assays were performed according to standard National Cancer Institute Guidelines. Briefly, human tumor cells from different cancer panels were seeded into 96 well plates in 100 μL (plating densities ranging from 5-40,000 cells/well depending on the doubling time of individual cell lines) in serum-containing media for twenty-four hours prior to the addition of the compounds to be assayed. After 24 hours, one plate of each cell line was fixed in situ with trichloroacetic acid (TCA). The fixed slides were used to determine the cell population for each cell line at the time of drug addition (Tz). Each compound to be tested was solubilized in DMSO and the desired concentration was then added to the medium and diluted serially 1:10 to provide a total of five or ten drug concentrations plus control (in a final volume of 200 μL). The starting dose before any dilution was 100 uM for all compounds.
(§2) Following drug addition, each culture was incubated for forty-eight hours. The assay was terminated with the addition of cold TCA. The supernatant was discarded, and the plates were washed with tap water and air dried. Sulforhodamine B (SRB) solution was then added to each well. After staining, the bound stain was solubilized and the absorbance was read on an automated plate reader at a wavelength of 515 nm.
(§3) Using the absorbance measurements [time zero, (Tz), control growth, (C), and test growth in the presence of drug at the ten concentration levels (Ti)], the percentage growth was calculated at each of the drug concentrations levels. Percentage growth inhibition was calculated as:
(§4) [(Ti−Tz)/(C−Tz)]×100 for concentrations for which Ti>/=Tz
(§5) [(Ti−Tz)/Tz]×100 for concentrations for which Ti<Tz.
(§6) Three dose response parameters were calculated for each experimental agent. Growth inhibition of 50% (GI50) was calculated from [(Ti−Tz)/(C−Tz)]×100=50, which was the drug concentration resulting in a 50% reduction in the net protein increase (as measured by SRB staining) in control cells during the drug. The drug concentration resulting in total growth inhibition (TGI) was calculated from Ti=Tz. The LC50 (concentration of drug resulting in a 50% reduction in the measured protein at the end of the drug treatment as compared to that at the beginning) indicating a net loss of cells following treatment was calculated from [(Ti−Tz)/Tz]×100=−50.
(§7) Values were calculated for each of these three parameters when the level of activity was reached; however, if the effect was not reached or was exceeded, the value for that parameter was expressed as greater or less than the maximum or minimum concentration tested.
(§8) Table 4 summarizes results characterizing the effects of compound Nos. 120, 12, 61, 1, and 56 on GI50, which measures the cell growth inhibitory power of the compound, TGI, which measures cytostatic effect (TGI) and LC50, which signifies cytotoxic effect. Each of these parameters in Table 4 was calculated in a sulforhodamine B (SRB) assay, which provides a colorimetric measure of a compound's anti-cancer activity. SRB assays were performed with compounds of the invention in 22 different cell lines (shaded in light gray in Table 4), which represent nine different tumor panels (lung, melanoma, ovary, prostate, CNS, breast, pancreas colon and renal). Ouabain and digoxin were used as controls. Paclitaxel was added as a non-Na^+K^+-ATPase inhibitor control.

DU145 (Prostate) = assay: SRB assay, DU145; format: cell-based, human; conditions: for TGI / GI50: DU145, SRB, 48 h; for CC50 / GI50: Homo sapiens; for CC50: DU-145, 48 h, read-out: LC50; for GI50: DU-145
Procedure: as §1, §2, §3, §4, §5, §6, §7, §8

HCT116 (Colon) = assay: SRB assay, HCT116; format: cell-based; conditions: Homo sapiens; for CC50: HCT-116, 48 h, read-out: LC50; for GI50 / IC (TGI): HCT-116, HCT116, SRB, 48 h
How it was run: (§9)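 Here GI50 marks halving of net protein increase, TGI the dose where final equals time-zero protein, and LC50 a 50% protein fall from baseline.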

SF268 (CNS) = assay: SRB assay, SF268; format: cell-based; conditions: Homo sapiens; for CC50: SF-268, 48 h, read-out: LC50; for GI50 / IC (TGI): SF-268, SF268, SRB, 48 h; for GI50: read-out: GI50; for IC (TGI): read-out: TGI
How it was run: as §9

OVCAR5 (Ovary) = assay: SRB assay, OVCAR5; format: cell-based, human; conditions: for CC50 / GI50: Homo sapiens; for CC50: OVCAR-5, 48 h, read-out: LC50; for GI50: OVCAR-5; for GI50 / TGI: OVCAR5, SRB, 48 h
Procedure: as §1, §2, §3, §4, §5, §6, §7, §8

ERVK (Lung) = assay: SRB assay, ERVK; format: cell-based, human; conditions: 48 h; for TGI / GI50: ERVK, SRB; for CC50 / GI50: Homo sapiens; for CC50: read-out: LC50
Procedure: as §1, §2, §3, §4, §5, §6, §7, §8

[1] = system: Na+/K+-ATPase (Adenosine 5′-Triphosphatase isolated from porcine cerebral cortex); assay: Na+/K+-ATPase inhibitory activity, colorimetric Adenosine 5'-Triphosphatase Enzymatic Assay; format: biochemical
Procedure: The inhibitory effect of a compound of the invention on ATPase activity was assessed in vitro using the colorimetric Adenosine 5′-Triphosphatase Enzymatic Assay of Sigma (St. Louis, Mo.) according to the manufacturer's instructions. This assay utilizes Adenosine 5′-Triphosphatase isolated from porcine cerebral cortex. Each reaction was performed in a final volume of 250 μl using 0.5 units/ml enzyme in the presence of different inhibitors. […] IC50 values were determined using the Origin® program software (OriginLab, Northampton, Mass.).

A549 (Lung) = assay: SRB assay, A549; format: cell-based, human; conditions: for TGI / GI50: A549, SRB, 48 h; for CC50 / GI50: Homo sapiens; for CC50: A549, 48 h, read-out: LC50
Procedure: as §1, §2, §3, §4, §5, §6, §7, §8

SKMEL28 (Melanoma) = assay: SRB assay, SKMEL28; format: cell-based, human; conditions: for CC50 / GI50: Homo sapiens; for CC50: SK-MEL-28, 48 h, read-out: LC50; for GI50: SK-MEL-28; for GI50 / TGI: SKMEL28, SRB, 48 h
Procedure: as §1, §2, §3, §4, §5, §6, §7, §8

OVCAR3 (Ovary) = assay: SRB assay, OVCAR3; format: cell-based, human; conditions: for CC50 / GI50: Homo sapiens; for CC50: OVCAR-3, 48 h, read-out: LC50; for GI50: OVCAR-3; for GI50 / TGI: OVCAR3, SRB, 48 h
Procedure: as §1, §2, §3, §4, §5, §6, §7, §8

CAKJ1 (Renal) = assay: SRB assay, CAKJ1; format: cell-based, human; conditions: 48 h; for TGI / GI50: CAKJ1, SRB; for CC50 / GI50: Homo sapiens; for CC50: read-out: LC50
Procedure: as §1, §2, §3, §4, §5, §6, §7, §8

PCJ (Prostate) = assay: SRB assay, PCJ; format: cell-based; conditions: Homo sapiens, 48 h; for CC50: read-out: LC50; for GI50 / IC (TGI): PCJ, SRB
How it was run: as §9

ADRRES (Ovary) = assay: SRB assay, ADRRES (multidrug resistant NCI-ADR-RES); format: cell-based, human; conditions: for TGI / GI50: ADRRES; for TGI / GI50 / GI50 in NCI-ADR-RES cells compared to non-resistant MCF-7 cells / anti-tumor action in multidrug resistant cell line NCI-ADR-RES: SRB; for TGI / CC50 / GI50: 48 h; for CC50 / GI50: Homo sapiens, NCI/ADR-RES; for CC50: read-out: LC50; for anti-tumor action in multidrug resistant cell line NCI-ADR-RES: cells express high levels of MDR1 and P-glycoprotein
Procedure: NCI-ADR-RES cells have been classified as ovarian cancer cells by the National Cancer Institute.
as §1, §2, §3, §4, §5, §6, §7, §8
Table 4 also presents results with Compound Nos. 120, 12, 61, 1, and 56 in a well characterized drug resistant cell line, NCI-ADR-RES, that expresses high levels of MDR1 and P-glycoprotein.

Structure (SMILES) | CC50 (MB435 (Melanoma)) [µM] | GI50 (MB435 (Melanoma)) [µM] | TGI (MB435 (Melanoma)) [µM] | TGI (DU145 (Prostate)) [µM] | CC50 (DU145 (Prostate)) [µM] | GI50 (DU145 (Prostate)) [µM] | CC50 (HCT116 (Colon)) [µM] | GI50 (HCT116 (Colon)) [µM] | IC (TGI) (HCT116 (Colon)) [µM] | CC50 (SF268 (CNS)) [µM] | GI50 (SF268 (CNS)) [µM] | IC (TGI) (SF268 (CNS)) [µM] | CC50 (OVCAR5 (Ovary)) [µM] | GI50 (OVCAR5 (Ovary)) [µM] | TGI (OVCAR5 (Ovary)) [µM] | TGI (ERVK (Lung)) [µM] | CC50 (ERVK (Lung)) [µM] | GI50 (ERVK (Lung)) [µM] | Na+K+ ATPase inhibitory activity (in words) [1] | TGI (A549 (Lung)) [µM] | also measured
C[C@]12CCC(=NOCCN)C=C1CCC1C2CC[C@]2(C)C(=O)CCC12 (stereo partly drawn) [Compound 12, (10R,13S)-3-(2-aminoethoxyimino)-10,13-dimethyl-2,3,7,8,9,10,11,12,13,14,15,16-dodecahydro-1H-cyclopenta[a]phenanthren-17(6H)-one] | 75.8 | 5.45 | 10.24 | 5.75 | 8.45 | 3.04 | 10.7 | 4.06 | 7.38 | 8.51 | 2.84 | 5.67 | 63.6 | 5.3 | 9.02 | 5.13 | 8.8 | 1.45 | strong Na+K+ ATPase inhibitory activities | 6.90 | IC50 ([1]; read-out: Na+K+ ATPase inhibitory activity IC50): 0.375 µM; CC50 (A549 (Lung)): 9.73 µM; GI50 (A549 (Lung)): 4.08 µM; CC50 (SKMEL28 (Melanoma)): 85.6 µM; GI50 (SKMEL28 (Melanoma)): 8.39 µM; TGI (SKMEL28 (Melanoma)): 40.16 µM; CC50 (OVCAR3 (Ovary)): 88.8 µM; GI50 (OVCAR3 (Ovary)): 3.01 µM; TGI (OVCAR3 (Ovary)): 28.79 µM; TGI (CAKJ1 (Renal)): 6.56 µM; CC50 (CAKJ1 (Renal)): 9.44 µM; GI50 (CAKJ1 (Renal)): 3.69 µM; CC50 (PCJ (Prostate)): 8.52 µM; GI50 (PCJ (Prostate)): 3.54 µM; IC (TGI) (PCJ (Prostate)): 6.03 µM; TGI (ADRRES (Ovary)): 6.58 µM; CC50 (ADRRES (Ovary)): 10.1 µM; GI50 (ADRRES (Ovary)): 3.08 µM; GI50 in NCI-ADR-RES cells compared to non-resistant MCF-7 cells (ADRRES (Ovary)): the same GI50 value; anti-tumor action in multidrug resistant cell line NCI-ADR-RES (ADRRES (Ovary)): potent anti-tumor action
C[C@]12CCC(=NOCCN)C=C1CCC1C2CC[C@@]2(C)C1CC[C@@H]2O (stereo partly drawn) [Compound 120, (1S,9aR,11aS)-17-hydroxy-10,13-dimethyl-6,7,8,9,10,11,12,13,14,15,16,17-dodecahydro-1H-cyclopenta[a]phenanthren-3(2H)-one O-2-aminoethyl oxime] | 98.9 | 7.29 | 38.95 | 13.54 | 68.5 | 5.87 | 39.2 | 4.28 | 16.1 | 20.4 | 4.65 | 9.08 | 87.1 | 20.5 | 53.80 | 38.23 | ≥ 105 | 4.57 | strong Na+K+ ATPase inhibitory activities | 62.82 | IC50 ([1]; 0.5 units/ml enzyme, five concentrations 10^−5 to 10^−9M, read-out: Na+ K+ Inhibitory Activity (IC50)): 0.897 µM; CC50 (A549 (Lung)): ≥ 179 µM; GI50 (A549 (Lung)): 6.91 µM; CC50 (SKMEL28 (Melanoma)): 79.6 µM; GI50 (SKMEL28 (Melanoma)): 19.9 µM; TGI (SKMEL28 (Melanoma)): 49.74 µM; CC50 (OVCAR3 (Ovary)): > 100 µM; GI50 (OVCAR3 (Ovary)): 6.5 µM; TGI (OVCAR3 (Ovary)): 41.51 µM; TGI (CAKJ1 (Renal)): 9.90 µM; CC50 (CAKJ1 (Renal)): 61 µM; GI50 (CAKJ1 (Renal)): 4.91 µM; CC50 (PCJ (Prostate)): 29.4 µM; GI50 (PCJ (Prostate)): 4.57 µM; IC (TGI) (PCJ (Prostate)): 14.2 µM; TGI (ADRRES (Ovary)): 42.91 µM; CC50 (ADRRES (Ovary)): 81.9 µM; GI50 (ADRRES (Ovary)): 8.73 µM; GI50 in NCI-ADR-RES cells compared to non-resistant MCF-7 cells (ADRRES (Ovary)): the same GI50 value; anti-tumor action in multidrug resistant cell line NCI-ADR-RES (ADRRES (Ovary)): potent anti-tumor action
